Laboratory results from US20260097111A1, “ETHER LIPIDS FOR HYPERACTIVATION OF MAMMALIAN DENDRITIC CELLS” (priority 2022, published 2026).
“Also recorded” adds a separate entry of the source. Read-outs that look alike come from different tables or passages of the source.

What was measured:
[1] = test system: human monocyte-derived dendritic cells (moDCs); assay: IL-1β secretion by human moDCs treated with lipid and R848; type: cell-based; conditions: for IL-1β secretion: human moDCs
Description: (§1) Human monocytes were isolated from Leukopaks purchased from Miltenyi using the StraightFrom Leukopak CD14 microbead kit (Miltenyi). Isolations were completed following manufacturer's instructions. Monocytes were then aliquoted and frozen in fetal bovine serum containing 10% dimethyl sulfoxide. For studies with monocyte-derived dendritic cell (moDC) cultures, monocytes were thawed and cultured in RPMI medium containing 10% FBS, 50 units/mL penicillin, […] streptomycin, 2 mM L-glutamine, 1 mM sodium pyruvate, […] beta-mercaptoethanol, 10 mM HEPES, and Gibco MEM non-essential amino acids (R10 media). To differentiate monocytes into moDCs, recombinant human GM-CSF (50 ng/mL) and IL-4 (25 ng/mL) were added to R10 media. Cells were cultured for 6 days with GM-CSF and IL-4, with an additional cell feeding with R10 containing GM-CSF and IL-4 on day 3.
Six days after differentiation, moDC were collected and counted. Cells were plated into 96-well flat-bottom plates at 1×10^5 cells/well. Cells were treated with or without 1 μg/mL R848 (final) and with or without a hyperactivating lipid (or vehicle control). In some experiments, MCC950, an inhibitor of the NLRP3 inflammasome, was added at a final concentration of 10 uM. In some experiments, nigericin, which causes NLRP3 inflammasome activation and subsequent pyroptosis, was used as a positive control at 20 uM. Cells and stimuli totaled a final volume of […].
Lipid stocks were then further diluted in PBS to treat cells.
(§2) After an overnight incubation, cells and culture supernatant were used for downstream readouts. One hundred and fifty microliters of cell supernatant were collected. Viability was measured using the CellTiter-Glo assay (Promega) which measures ATP content from cells. Fifty microliters of CellTiter-Glo reagent were added to 50 μL of cells. Luminescence was quantified on a SpectraMax m5e plate reader using an integration time of 500 milliseconds. Viability data were set relative to control conditions where cells were treated with only R848. To measure IL-1β secretion, the human IL-1β Lumit kit (Promega) was used to assay cell culture supernatant. Culture supernatant samples were incubated with enzyme-linked antibodies in a 384-well plate for 1 hour before addition of luminescent substrate. Samples were measured for luminescence with an integration time of 500 milliseconds. IL-1β concentrations of samples was determined by interpolation from a standard curve using 4-parameter logistic regression analysis. Studies were performed on three different human donor samples, and each biological condition was tested in triplicate. Graphed data represent means from each donor.
as §1, with “Human moDC Production. Human” for “Human”, “(Miltenyi) according to the” for “(Miltenyi). Isolations were completed following”, “To differentiate” for “For studies with”, “pyruvate, and” for “pyruvate,”, “beta-mercaptoethanol” for “beta-mercaptoethanol, 10 mM HEPES, and Gibco MEM non-essential amino acids”
Hyperactivating Lipid Formulation—Compound 10. Lipid stocks were formulated at 200 μg/mL lipid in 5% Kolliphor P407 (KP407) in PBS.

Solubility observations = type: physicochemical
human moDCs [2] = assay: Cell viability of human moDCs (CellTiter-Glo); type: cell-based; conditions: human moDCs, 20.6 μM lipid; FIG. 19
Description: as §2
Measurement of Cytokine Secretion and Cell Viability. After an overnight incubation, cells and culture supernatant were used for downstream readouts. One hundred and fifty microliters of cell culture supernatant were collected. Viability was measured using the CellTiter-Glo assay (Promega) which measures ATP content from cells. Fifty microliters of CellTiter-Glo reagent were added to 50 μL of cells. Luminescence was quantified on a SpectraMax m5e plate reader using an integration time of 500 milliseconds. Viability data were set relative to control conditions where cells were treated with only R848. To measure IL-1β secretion, the human IL-1β Lumit kit (Promega) was used. […] Samples were measured for luminescence with an integration time of 500 milliseconds. IL-1β concentrations of samples was determined by interpolation from a standard curve using 4-parameter logistic regression analysis. […]

[3] = Serum chemokines and cytokines after SC injection; type: in vivo, mice; conditions: mouse, in vivo, sc
Description: Lipid Preparation. […] Lipids were used for chemical injections or DC treatment within one hour of their preparation.
Subcutaneous (SC) Injection. Mice were placed under Isoflurane for a few min for anesthesia. Tubes containing the chemicals were vortexed for 30 seconds, then loaded with a 1 mL Sub-Q syringe.
Blood Collection. Mice were placed under Isoflurane for approximately 10 min for anesthesia. Using a 21G needle, mice were gently poked through the skin to the submandibular space to induce bleeding. Five-Six drops were collected in a mini collect K2EDTA blood collection tube. Blood samples were transported back to Corner Therapeutics lab on ice. The blood was then centrifuged at 1500×g for 5 min. After centrifugation, blood was collected into a 96-well round bottom plate and stored at −80° C.
Measurement of Serum Chemokines and Cytokines. Secreted cytokines were measured in the supernatant by cytokine bead array using the LEGENDplex™ Mouse Murine Proinflammatory Chemokine, Murine Cytokine Release Syndrome Legendplex and LEGENDplex™ Mouse Cytokine Panel 2 (Biolegend) according to the manufacturer's protocol. Data were collected using a Quanteon Novocyte flow cytometer and analyzed using the cloud-based software provided by Biolegend.

human moDCs [4] = conditions: for IFNα2: R848 stimulation, FIG. 33B
human moDC = assay: IL-1β ELISA, human moDC treated with R848, DGP, MCC950; type: cell-based; conditions: only R848 2.85 μM, donor HD94
Description: Monocyte Isolation, Storage, and Differentiation into moDC. Human leukapheresis blood products were freshly obtained from AllCells via same day or overnight shipping at 4° C. Miltenyi StraightFrom Leukopak CD14 MicroBead isolation kits were used according to manufacturer instructions to isolate CD14+ monocytes. Briefly, leukopaks ranging in quantity from 5×10^9 to 1×10^10 total nucleated cells were evenly aliquoted into 50 mL conical tubes. Cells were incubated with CD14 microbeads and then loaded on the MultiMACS using the program “Possel2”. After washing out the negative population, CD14+ cells were eluted from the columns and counted. An aliquot of monocytes was used to stain for purity of cells to ensure that isolated live cells were […] CD11c+CD14+ by flow cytometry. […] Vials were placed in CoolCell freezing containers and placed in a −80° C. freezer and stored no longer than 1 week. Frozen cells were transferred for long-term storage to the vapor phase of a liquid nitrogen freezer until use.
To differentiate monocytes into moDC, vials of cells were taken out of the liquid nitrogen freezer and quickly thawed in a 37° C. water bath. Cells were diluted ten-fold in warmed R10++ media containing 50 units/mL benzonase. R10++ media was composed of RPMI 1640 media containing 10% fetal bovine serum, 50 units/mL penicillin, […] streptomycin, 2 mM L-glutamine, 1 mM sodium pyruvate, […] beta-mercaptoethanol, 10 mM HEPES, and 1% Gibco MEM non-essential amino acids. After gentle mixing by inversion of tubes, cells were incubated at 37° C. for 10 min. Cells were pelleted at 400×g for 5 min and supernatant was aspirated. Cells were resuspended in R10++ media and counted on the MoxiGo by diluting an aliquot in PBS containing a final concentration of 2.5 μg/mL propidium iodide. Cells were plated in T75 culture flasks at 3-6×10^7 cells per flask in a total of 20 mL R10++ media containing a final concentration of 50 ng/mL GM-CSF and 25 ng/mL IL-4. Three days after the start of culture, an additional 10 mL R10++ containing 50 ng/mL GM-CSF and 25 ng/mL IL-4 was added to each flask.
Six days after start of differentiation. R10++ media containing cells were placed into 50 mL conical tubes. Flasks were washed with an additional 10 mL PBS and also collected. […] Cells were resuspended in R10++ media and counted on the MoxiGo by diluting an aliquot in PBS containing a final concentration of 2.5 μg/mL propidium iodide. Cells were then adjusted to 1×10^6 cells/mL in R10++ media.
moDC Treatment. Human moDC were plated at 1×10^5 cells/well in 96-well flat-bottom tissue culture plates in R10++ media by adding 100 μL of cells per well. To each well, a 25 μL solution of R10++ containing 400 ng/mL GM-CSF and 200 ng/mL IL-4 was added.
Lyophilized R848 stocks were prepared as described above and frozen at −80° C. An aliquot of frozen R848 was thawed and further diluted to 11.4 μM in R10++ (4 μg/mL R848). Cell culture conditions receiving R848 treatment had 50 μL added to wells. For wells not receiving R848, 50 μL R10++ was added to wells. Lyophilized MCC950 was prepared as described above and stored at −20° C. MCC950 was further diluted to 40 uM in a prepared R10++ solution containing 11.4 μM R848. Cells receiving R848 and MCC950 treatment had 50 μL added to wells. Final concentrations of R848 and MCC950 in a total 200 μL volume were respectively 2.85 μM and 10 μM.
A4.44% solution of KP407 dissolved in sterile, distilled water was prepared at a temperature of 4° C. […]

human moDCs [5] = assay: IL-6 secretion by human moDCs; type: cell-based
[6] = 41.25 μM lipid with R848, FIG. 17

Compound	IL-1β secretion [1, 6]	IL-1β secretion ([1]; 41.25 μM lipid with R848 vs vehicle control, FIG. 8)	IL-1β secretion ([1]; 41.3 uM lipid with R848, FIG. 11)	IL-1β secretion ([1]; 24 hours, lipid (equimolar, in 0.5% KP407) with R848, FIG. 1B)	IL-1β secretion ([1]; 24 hours, lipid in 4% KP407 with R848, FIG. 2B)	solubility (Solubility observations)	hyperactivation of human dendritic cells ([1]; 41.25 μM lipid with R848 (Compound 1 also 20.6 μM))	IL-1β secretion ([1]; 20.6 μM lipid, FIG. 20)	IL-1β secretion ([1]; 24 hours, lipid (equimolar, in 0.5% KP407) with R848, FIG. 1B, listed as DGPC)	cell viability (human moDCs [2]) [%]	cytokine and chemokine release in the serum [3]	IFNα2 (human moDCs [4]; donor HD92) [µg/mL]	IFNα2 (human moDCs [4]; donor HD93) [µg/mL]	IL-12p70 (human moDCs [4]; donors HD92 and HD93, FIG. 32C)	IL-1β (human moDC) [µg/mL]	IL-6 in cell culture supernatant (human moDCs [5]; human moDCs stimulated with R848, FIG. 10)	IL-6 secretion (human moDCs [5]; human moDCs, R848 with vehicle, no hyperactivating lipid, FIG. 16)
1-behenoyl-2-hydroxy-sn-glycero-3-phosphocholine [22:0 lyso PC, reference compound]	significant increase in IL-1β	produced significantly more IL-1β	robustly induced IL-113 secretion	IL-1β was secreted	induced a detectable amount of IL-1β	can be dissolved in ethanol, methanol, or chloroform	–	–	–	–	–	–	–	–	–	–	–
CCCCCCCCCCCCCCCCCCCCCCOC[C@@H](O)COP(=O)([O-])OCC[N+](C)(C)C [Compound 1, 1-docosyl-sn-glycerol-3-phosphocholine]	significantly increased IL-1β secretion	–	–	–	–	can be dissolved in ethanol, methanol, or chloroform	hyperactivated dendritic cells	induced IL-1β secretion that was dependent upon R848 stimulation and the NLRP3 inflammasome	also induced IL-1β secretion; also recorded: induced less IL-1β than 22:0 lyso PC	> 75	–	–	–	–	–	–	–
CCOCc1nc2c(N)nc3ccccc3c2n1CC(C)(C)O [Compound R848, resiquimod, reference compound]	–	–	–	–	–	–	–	–	–	–	returned to homeostasis (PBS levels) by 24 hours post injection	94	82	at least 100 μg/mL	288	greater than 20,000 μg/mL	approximately 20,000 μg/mL
